Drawing on patent US20140094462A1, “SONIC HEDGEHOG MODULATORS” (priority 2009, published 2014), this text covers IC50, Kd and ring closure, yield of all isomers for 27 molecules.

The structures appear in SMILES notation. Read-outs that look alike come from different tables or passages of the source. A value given as a limit tells only on which side of the number the result lay.

Data set [1] relates to C3H10T1/2. The experiment in a line: Induction of osteogenic differentiation (modulation of osteoblast differentiation). Particulars: Mus musculus, C3H 10T1/2, read-out: IC50 (nM) C3H10T1/2.
Excerpt: Using assays previously described in Dwyer et al., J. Biol. Chem. 282, (2007), 8959-68 and Nakamura et al., Biochm. […] Res. Comm., 237 (1997) 465-9, select compounds of the invention were screened for their ability to modulate osteoblast differentiation.
Data set [2] concerns the target T1, ShhN protein (Homo sapiens, UniProt Q15465).
T1 construct: auto-cleavage of full length Shh into an active 20 kD N-terminal fragment (ShhN); purchased R&D Systems
The experiment in a line: Surface Plasmon Resonance (SPR) protein binding assay on immobilized ShhN. As to the method: Biacore™ T100 (GE Healthcare, Uppsala, Sweden) was used to perform the experiments described herein. Sensor surface preparation and interaction analyses experiments were performed at 25° C.
Control surfaces were prepared similarly without protein derivatization and were utilized as a reference surfaces for compound binding experiments.
Zero concentration blank buffer cycles were included as negative control samples.
Data analysis was carried out using Biacore T100 evaluation software v1.1.1. […] Solvent correction was then applied as described previously.

The conditions of data set [3]: rcm bond, toluene.
In data set [4] the test system is Gli1. The experiment in a line: Primary keratinocyte cell culture, reduction in Gli mRNA. Format: cell-based. As to conditions: primary human keratinocytes. The protocol:
To study the potency of the compounds of the invention in cells, select compounds of the invention were conducted with keratinocytes and the reduction in Gli mRNA was measured. Culturing of primary human keratinocytes was previously described (Nguyen, B. C., et al., Genes & Dev. 20:1028-1042 (2006)). The full thickness skin model, EpiDermFT System (MatTek, Ashland), consisted of normal, human-derived epidermal keratinocytes and normal, human-derived dermal fibroblasts which have been cultured to form a multilayered, highly differentiated model of the human dermis and epidermis. […] Gene expression is compared by quantifying mRNA levels by real time RT-PCR. For this, total RNA preparations […] are used in a reverse transcriptase reaction with a mix of oligonucleotide dT and random hexamer primers, followed by real time PCR with gene-specific primers (Gli1: Qiagen Quantitect PrimerAssay QT00060501; Gli2: Qiagen Quantitect PrimerAssay QT00018648), using an […] real time detection system (Bio-Rad) according to the manufacturer's recommendation, with SYBR Green (Bio-Rad) for detection.

Where [5] appears, read: SPR, Biacore T100, ShhN immobilized on CM4 chip, 25° C., compound 0.78 μM-25 μM, read-out: KD.

T1 sequence (Q15465 24-197 limits assumed, species assumed): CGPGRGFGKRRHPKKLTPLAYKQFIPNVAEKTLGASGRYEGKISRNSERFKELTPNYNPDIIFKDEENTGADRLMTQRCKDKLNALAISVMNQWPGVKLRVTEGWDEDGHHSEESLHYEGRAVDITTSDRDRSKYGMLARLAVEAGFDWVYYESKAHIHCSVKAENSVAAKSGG

By Kd is commonly meant the equilibrium constant for the complex coming apart. Regarding `C[C@H]1C/C=C/C[C@@H](CC(=O)NCc2ccc(Cl)cc2)C(=O)OC[C@@H](c2ccccc2)NC1=O` [Example DI, N-(4-chlorobenzyl)-2-((3R,6S,11S,E)-6-methyl-5,12-dioxo-3-phenyl-1-oxa-4-azacyclododec-8-en-11-yl)acetamide], the IC50 in data set [1] fell in the range of 1000 to 100000 nM. Besides, the dissociation constant (Kd) in data set [2] (setting [5]) fell in the range of 0.1 to 1 µM.
For the molecule `C[C@@H]1C/C=C/CC(F)(F)C(=O)N[C@H](c2ccccc2)COC1=O` [Example K, (3R,11R,E)-6,6-difluoro-11-methyl-3-phenyl-1-oxa-4-azacyclododec-8-ene-5,12-dione], the IC50 in data set [1] was greater than 100000 nM. In addition, the equilibrium dissociation constant (Kd) in data set [2] (setting [5]) was in the range of 0.1 to 1 µM. In data set [3] (from C=CC[C@@H](C)C(=O)OC[C@H](NC(=O)C(F)(F)CC=C)c1ccccc1), this molecule gave a ring closure, yield of all isomers of 84%.
Consider `C[C@@H]1C/C=C/C[C@@H](N)C(=O)N[C@H](c2ccccc2)COC1=O` [Example M, (3R,6R,11R,E)-6-amino-11-methyl-3-phenyl-1-oxa-4-azacyclododec-8-ene-5,12-dione], for which the IC50 in data set [1] is greater than 100000 nM. Also, in data set [2] (setting [5]), the dissociation constant (Kd) lay within 0.1 to 1 µM.
Taken in the same sequence, the figures for `O=C(C[C@@H]1C/C=C/CCC(=O)N[C@H](c2ccc(F)cc2)COC1=O)NCc1ccc(Cl)cc1` [Example CS, N-(4-chlorobenzyl)-2-((3R,11S,E)-3-(4-fluorophenyl)-5,12-dioxo-1-oxa-4-azacyclododec-8-en-11-yl)acetamide] were less than 100 nM and 0.1 to 1 µM.
Taken in the same sequence, the figures for `C[C@@H]1CCCCCC(=O)N[C@H](c2ccccc2)COC1=O` [Example J, (3R,11R)-11-methyl-3-phenyl-1-oxa-4-azacyclododecane-5,12-dione] were 1000 to 100000 nM and less than 0.1 µM.
Regarding `O=C(O)C[C@@H]1C/C=C/CCC(=O)O[C@H](c2ccccc2)CNC1=O` [GC, 2-((2R,6S,E)-5,12-dioxo-2-phenyl-1-oxa-4-azacyclododec-8-en-6-yl)acetic acid], the Kd in data set [2] (setting [5]) is greater than 100 µM. This molecule also yielded an IC50 in data set [4] greater than 100 µM.
`O=C(C[C@@H]1C[C@H](O)[C@@H](O)CCC(=O)OC[C@@H]2CCCN2C1=O)NCc1ccc(Cl)cc1` [Example G, N-(4-chlorobenzyl)-2-((6S,7S,9S,14aS)-6,7-dihydroxy-3,10-dioxododecahydro-1H-pyrrolo[2,1-c][1,4]oxaazacyclododecin-9-yl)acetamide]: the IC50 in data set [1] lay within 1000 to 100000 nM. In addition, the Kd in data set [2] (setting [5]) was 0.1 to 1 µM.
In data set [4], `O=C(CCc1ccc(Cl)cc1)N[C@@H]1C/C=C/CCC(=O)O[C@H](c2ccccc2)CNC1=O` [CA] had an IC50 greater than 100 µM.
Take `O=C(C[C@@H]1C/C=C/CCC(=O)N[C@H](c2ccc(Cl)cc2)COC1=O)NCc1ccc(Cl)cc1` [Example CX, N-(4-chlorobenzyl)-2-((3R,11S,E)-3-(4-chlorophenyl)-5,12-dioxo-1-oxa-4-azacyclododec-8-en-11-yl)acetamide]: in data set [1], the IC50 is 100 to 1000 nM. The Kd in data set [2] (setting [5]) was less than 0.1 µM.
As for `CCOCCNC(=O)C[C@@H]1C/C=C/CCC(=O)O[C@H](c2ccccc2)CNC1=O` [EH], the equilibrium dissociation constant (Kd) in data set [2] (setting [5]) was greater than 100 µM. Also, the IC50 in data set [4] is 1 to 100 µM.
Taken in the same sequence, the figures for `O=C1CC/C=C/C[C@@H](CC(=O)N2CCN(c3ccccc3)CC2)C(=O)NC[C@@H](c2ccccc2)O1` [Example ES, (2R,6S,E)-6-(2-oxo-2-(4-phenylpiperazin-1-yl)ethyl)-2-phenyl-1-oxa-4-azacyclododec-8-ene-5,12-dione] were 0.1 to 1 µM and 0.1 to 1 µM.
Taken in the same sequence, the figures for `O=C(C[C@@H]1C[C@H](O)[C@@H](O)CCC(=O)O[C@H](c2ccccc2)CNC1=O)NCc1ccc(Cl)cc1` [Example BZ, N-(4-chlorobenzyl)-2-((2R,6S,8S,9S)-8,9-dihydroxy-5,12-dioxo-2-phenyl-1-oxa-4-azacyclododecan-6-yl)acetamide] were 1 to 100 µM and 0.1 to 1 µM.
On to `C[C@H]1[C@@H](c2ccccc2)OC(=O)CCCCC[C@@H](CC(=O)NCc2ccc(Cl)cc2)C(=O)N1C` [Example DC, N-(4-chlorobenzyl)-2-((2R,3S,6S)-3,4-dimethyl-5,12-dioxo-2-phenyl-1-oxa-4-azacyclododecan-6-yl)acetamide], for which the IC50 in data set [1] fell in the range of 100 to 1000 nM. Further, in data set [2] (setting [5]), the Kd was 0.1 to 1 µM.
For `CN1C(=O)CC/C=C/C[C@@H](CC(=O)NCc2ccc(Cl)cc2)C(=O)OC[C@H]1c1ccccc1` [GH, N-(4-chlorobenzyl)-2-((3R,11S,E)-4-methyl-5,12-dioxo-3-phenyl-1-oxa-4-azacyclododec-8-en-11-yl)acetamide], in data set [2] (setting [5]), the Kd fell in the range of 1 to 100 µM. Further, the IC50 in data set [4] was 1 to 100 µM.
Regarding `O=C(C[C@@H]1C/C=C/CCC(=O)O[C@H](c2ccccc2)CNC1=O)NCC1CCOCC1` [Example EF, 2-((2R,6S,E)-5,12-dioxo-2-phenyl-1-oxa-4-azacyclododec-8-en-6-yl)-N-((tetrahydro-2H-pyran-4-yl)methyl)acetamide], the dissociation constant (Kd) in data set [2] (setting [5]) was in the range of 1 to 100 µM. Besides, in data set [4], the IC50 was 1 to 100 µM.
As to `O=C(C[C@@H]1C/C=C/CCC(=O)OC[C@@H]2CCCN2C1=O)NCc1ccc(Cl)cc1` [DP, N-(4-chlorobenzyl)-2-((9S,14aS,E)-3,10-dioxo-3,4,5,8,9,10,12,13,14,14a-decahydro-1H-pyrrolo[2,1-c][1,4]oxaazacyclododecin-9-yl)acetamide], the IC50 in data set [1] lay within 1000 to 100000 nM. Also, the Kd in data set [2] (setting [5]) lay in the range of 1 to 100 µM.
For `CCN(CC)CCCNC(=O)C[C@@H]1C/C=C/CCC(=O)O[C@H](c2ccccc2)CNC1=O` [EG], in data set [2] (setting [5]), the Kd was greater than 100 µM. In addition, the IC50 in data set [4] lay within 1 to 100 µM.
Take `CC(=O)N[C@@H]1C/C=C/C[C@@H](C)C(=O)OC[C@@H](c2ccccc2)NC1=O` [Example N, N-((3R,6R,11R,E)-11-methyl-5,12-dioxo-3-phenyl-1-oxa-4-azacyclododec-8-en-6-yl)acetamide]: in data set [1], the IC50 is greater than 100000 nM. For the same molecule, in data set [2] (setting [5]), the Kd was 0.1 to 1 µM.
With `O=C(C[C@@H]1C/C=C/CCC(=O)O[C@H](c2ccccc2)CNC1=O)NCc1ccc([N+](=O)[O-])cc1` [Example DQ, 2-((2R,6S,E)-5,12-dioxo-2-phenyl-1-oxa-4-azacyclododec-8-en-6-yl)-N-(4-nitrobenzyl)acetamide], the IC50 in data set [1] is greater than 100000 nM. Besides, the dissociation constant Kd in data set [2] fell in the range of 1 to 100 µM.
For `C[C@H]1C/C=C/C[C@@H](CC(=O)NCc2ccc(Cl)cc2)C(=O)NC[C@@H](c2ccccc2)OC1=O` [Example DF, N-(4-chlorobenzyl)-2-((2R,6S,11S,E)-11-methyl-5,12-dioxo-2-phenyl-1-oxa-4-azacyclododec-8-en-6-yl)acetamide], in data set [1], the IC50 lay within 100 to 1000 nM. For the same molecule, the Kd in data set [2] (setting [5]) is 0.1 to 1 µM.
On to `O=C(C[C@@H]1C[C@@H]2O[C@H]2CCC(=O)O[C@H](c2ccccc2)CNC1=O)NCc1ccc(Cl)cc1` [Example BY, N-(4-chlorobenzyl)-2-((1S,6R,10S,12S)-4,9-dioxo-6-phenyl-5,13-dioxa-8-azabicyclo[10.1.0]tridecan-10-yl)acetamide], for which, in data set [2] (setting [5]), the Kd was 0.1 to 1 µM. For the same molecule, the IC50 in data set [4] was less than 0.1 µM.
For the molecule `O=C(C[C@@H]1C/C=C/CCC(=O)N[C@H](c2ccccc2)COC1=O)NCc1ccc(Cl)nc1` [Example DD, N-((6-chloropyridin-3-yl)methyl)-2-((3R,11S,E)-5,12-dioxo-3-phenyl-1-oxa-4-azacyclododec-8-en-11-yl)acetamide], in data set [1], the IC50 is 100 to 1000 nM. Besides, the dissociation constant Kd in data set [2] (setting [5]) was less than 0.1 µM.
In the same order, the values of `O=C1CC/C=C/C[C@@H](O)C(=O)OC[C@@H](c2ccccc2)N1` [Example H, (3R,11R,E)-11-hydroxy-3-phenyl-1-oxa-4-azacyclododec-8-ene-5,12-dione] are 1000 to 100000 nM and less than 0.1 µM.
Taken in the same sequence, the figures for `C[C@H]1CCCC[C@@H](CC(=O)NCc2ccc(Cl)cc2)C(=O)NC[C@@H](c2ccccc2)OC1=O` [Example DB, N-(4-chlorobenzyl)-2-((2R,6S,11S)-11-methyl-5,12-dioxo-2-phenyl-1-oxa-4-azacyclododecan-6-yl)acetamide] were 100 to 1000 nM and less than 0.1 µM.
With `CC(=O)N[C@@H]1C/C=C/CCC(=O)N[C@H](c2ccccc2)COC1=O` [Example B, N-((3R,11R,E)-5,12-dioxo-3-phenyl-1-oxa-4-azacyclododec-8-en-11-yl)acetamide], the IC50 in data set [1] is less than 100 nM. The Kd in data set [2] (setting [5]) was less than 0.1 µM.
`CC(C)N[C@H]1C/C=C/C[C@@H](CC(=O)NCc2ccc(Cl)cc2)C(=O)NC[C@@H](c2ccccc2)OC1=O` [Example DE, N-(4-chlorobenzyl)-2-((2R,6S,11S,E)-11-(isopropylamino)-5,12-dioxo-2-phenyl-1-oxa-4-azacyclododec-8-en-6-yl)acetamide]: in data set [1], the IC50 was in the range of 100 to 1000 nM. The Kd in data set [2] (setting [5]) fell in the range of 0.1 to 1 µM.
As to `C[C@@H]1C/C=C/C[C@H](C)C(=O)N[C@H](c2ccccc2)COC1=O` [Example D, (3R,6S,11R,E)-6,11-dimethyl-3-phenyl-1-oxa-4-azacyclododec-8-ene-5,12-dione], in data set [1], the IC50 fell in the range of 100 to 1000 nM. The dissociation constant Kd in data set [2] (setting [5]) is less than 0.1 µM. In data set [3] (from C=CC[C@@H](C)C(=O)OC[C@H](NC(=O)[C@@H](C)CC=C)c1ccccc1, Grubbs II, 20.0 mM, 25.0 °C, 12.0 h), this molecule had a ring closure, yield of all isomers of 78%.
